From patent publication US20100311592A1, “USE OF 2-IODO-N 4-METHOXY-6-METHYL-1,3,5-TRIAZINE-2-YL CARBAMOYL BENZENESULFONAMIDE AND/OR SALTS THEREOF FOR COMBATING UNDESIRED PLANT GROWTH IN SELECTED USEFUL PLANT CROPS OR NON-CULTIVATED LAND” (Bayer CropScience AG, priority 2007, published 2010) come the findings set out here.

Holding throughout (format): in vivo
For one data set, the system named is Amaranthus retroflexus. The data set can be described thus: Post-emergence action against weeds. The conditions noted are these: post-emergence method, application rate of 0.1 kg or less of active substance per hectare, visual scoring after about 3 to 4 weeks. On the procedure:
(§1) Seeds or rhizome pieces of monocotyledonous and dicotyledonous weeds were placed in sandy loam in plastic pots, covered with soil and cultivated in a greenhouse under good growth conditions. Three weeks after sowing, the test plants were treated at the three-leaf stage.

The test system of data set [1] is Viola tricolor. The data set can be described thus: Post-emergence action against weeds. The conditions noted are these: post-emergence method, application rate of 0.1 kg or less of active substance per hectare, visual scoring after about 3 to 4 weeks. As for the experimental part: as §1
Another data set deals with Ipomoea purpurea. The data set can be described thus: Post-emergence action against weeds. The conditions noted are these: post-emergence method, application rate of 0.1 kg or less of active substance per hectare, visual scoring after about 3 to 4 weeks. As for the experimental part:
as §1

For data set [2], the system named is Stellaria media. The experiment in a line: Post-emergence action against weeds. The conditions noted are these: post-emergence method, application rate of 0.1 kg or less of active substance per hectare, visual scoring after about 3 to 4 weeks. On the procedure: as §1
For data set [3], the system named is Lolium multiflorum. The experiment in a line: Post-emergence action against weeds. The conditions noted are these: post-emergence method, application rate of 0.1 kg or less of active substance per hectare, visual scoring after about 3 to 4 weeks. As for the experimental part: as §1
Data set [4] deals with Matricaria inodora. The data set can be described thus: Post-emergence action against weeds. The conditions noted are these: post-emergence method, application rate of 0.1 kg or less of active substance per hectare, visual scoring after about 3 to 4 weeks. As for the experimental part:
as §1

The next data set relates to Veronica persica. The data set can be described thus: Post-emergence action against weeds. The conditions noted are these: post-emergence method, application rate of 0.1 kg or less of active substance per hectare, visual scoring after about 3 to 4 weeks. On the procedure:
as §1

Another data set deals with Abuthilon theophrasti. The experiment in a line: Post-emergence action against weeds. The conditions noted are these: post-emergence method, application rate of 0.1 kg or less of active substance per hectare, visual scoring after about 3 to 4 weeks. On the procedure:
as §1

Data set [5] relates to Viola tricolor. The data set can be described thus: Pre-emergence herbicidal activity. The conditions noted are these: pre-emergence method, application rate of 0.1 kg or less of active substance per hectare, visual scoring after 3 to 4 weeks. From the text: (§2) Seeds or rhizome pieces of mono- and dicotyledonous weeds were placed in sandy loam in cardboard pots and covered with soil. The compounds according to the invention, formulated in the form of wettable powders or emulsion concentrates, were then applied to the surface of the covering soil in the form of aqueous suspensions or emulsions at an application rate of 100 to 8001 of water/ha (converted), at various dosages.
(§3) After the treatment, the pots were placed in a greenhouse and kept under good growth conditions for the weeds. Visual scoring of the damage to the plants or the emergence damage was carried out after the emergence of the test plants after a test period of 3 to 4 weeks, by comparison with untreated controls. As shown by the results, the compounds according to the invention have good herbicidal pre-emergence activity against a broad spectrum of weed grasses and broad-leaved weeds.

Data set [6] relates to Stellaria media. The data set can be described thus: Pre-emergence herbicidal activity. The conditions noted are these: pre-emergence method, application rate of 0.1 kg or less of active substance per hectare, visual scoring after 3 to 4 weeks.
Excerpt: as §2, §3

Data set [7] deals with Lolium multiflorum. The data set can be described thus: Pre-emergence herbicidal activity. The conditions noted are these: pre-emergence method, application rate of 0.1 kg or less of active substance per hectare, visual scoring after 3 to 4 weeks.
Excerpt: as §2, §3

For a further data set, the system named is Papaver rhoeas. The data set can be described thus: Pre-emergence herbicidal activity. The conditions noted are these: pre-emergence method, application rate of 0.1 kg or less of active substance per hectare, visual scoring after 3 to 4 weeks.
Excerpt: as §2, §3

Data set [8] has as its system Matricaria inodora. The data set can be described thus: Pre-emergence herbicidal activity. The conditions noted are these: pre-emergence method, application rate of 0.1 kg or less of active substance per hectare, visual scoring after 3 to 4 weeks.
Excerpt: as §2, §3

A further data set has as its system barley. The data set can be described thus: Compatibility with crop plants. The conditions noted are these: pre- or post-emergence treatment in the greenhouse; visual scoring four to five weeks after application; even at relatively high application rates. From the text:
In further tests in the greenhouse, seeds of a relatively large number of crop plants and weeds were placed in sandy loam and covered with soil. Some of the pots were immediately treated as described in section 1, the others were placed in the greenhouse until the plants had developed two to three true leaves and were then sprayed with 2-iodo-N-[(4-methoxy-6-methyl-1,3,5-triazin-2-yl)carbamoyl]benzenesulfonamide and also, for example, the compounds Nos. I-1, I-2, I-3, I-4, I-12, I-18 and 1-19 from Table 1, as described in section 2.

Take `COc1nc(C)nc(NC(=O)NS(=O)(=O)c2ccccc2I)n1` [2-iodo-N-[(4-methoxy-6-methyl-1,3,5-triazin-2-yl)carbamoyl]benzenesulfonamide]: the herbicidal activity entry with Amaranthus retroflexus, in the data set on Viola tricolor [1], with Ipomoea purpurea, in the data set with Stellaria media [2], in the data set on Lolium multiflorum [3] and with Matricaria inodora [4] was “very good herbicidal activity” throughout. Further, the herbicidal activity entry with Veronica persica, in the data set with Abuthilon theophrasti, with Viola tricolor [5], in the data set on Stellaria media [6], in the data set with Lolium multiflorum [7] and in the data set on Papaver rhoeas was “very good herbicidal activity” in each case. The herbicidal activity entry in the data set on Matricaria inodora [8] is reported as “very good herbicidal activity”. For the same molecule, the damage to barley result in the data set on barley is recorded as “did not damage barley at all or left only marginal traces of damage”.
With `CC[N+](CC)(CC)CC.COc1nc(C)nc(NC(=O)[N-]S(=O)(=O)c2ccccc2I)n1` [Compound I-12], the herbicidal activity entry with Amaranthus retroflexus, with Viola tricolor [1], in the data set on Ipomoea purpurea, with Stellaria media [2], with Lolium multiflorum [3] and in the data set with Matricaria inodora [4] was “very good herbicidal activity” each time. For the same molecule, the herbicidal activity result in the data set with Veronica persica, in the data set on Abuthilon theophrasti, with Viola tricolor [5], with Stellaria media [6], in the data set on Lolium multiflorum [7] and with Papaver rhoeas was “very good herbicidal activity” throughout. The herbicidal activity result in the data set on Matricaria inodora [8] was “very good herbicidal activity”. The damage to barley result in the data set with barley is reported as “did not damage barley at all or left only marginal traces of damage”.
For the molecule `CCCC[N+](CCCC)(CCCC)CCCC.COc1nc(C)nc(NC(=O)[N-]S(=O)(=O)c2ccccc2I)n1` [Compound I-18], the herbicidal activity entry with Amaranthus retroflexus, with Viola tricolor [1], in the data set on Ipomoea purpurea, in the data set with Stellaria media [2], with Lolium multiflorum [3] and in the data set on Matricaria inodora [4] was “very good herbicidal activity” throughout. Besides, the herbicidal activity entry with Veronica persica, with Abuthilon theophrasti, in the data set with Viola tricolor [5], in the data set with Stellaria media [6], with Lolium multiflorum [7] and with Papaver rhoeas was “very good herbicidal activity” in each case. The herbicidal activity entry in the data set on Matricaria inodora [8] is on record as “very good herbicidal activity”. Also, the damage to barley result in the data set on barley is listed as “did not damage barley at all or left only marginal traces of damage”.
